Assay results as given in publication PMC3595096 (Biochemistry, 2012).
Where “and” joins values, the source holds several entries; their conditions need not be identical. Identical values can stand only once. Counter-ions that a name gives are not always drawn.

Assays:
[1] = system: various subtypes of muscarinic receptor; settings: cited from earlier work
[2] = target: M2 receptor extracted from porcine atria (Sus scrofa, UniProt P06199); format: binding
human M2 receptor [3] = target: T1, human M2 receptor (Homo sapiens, UniProt P08172); format: binding
T1 sequence (P08172 whole entry): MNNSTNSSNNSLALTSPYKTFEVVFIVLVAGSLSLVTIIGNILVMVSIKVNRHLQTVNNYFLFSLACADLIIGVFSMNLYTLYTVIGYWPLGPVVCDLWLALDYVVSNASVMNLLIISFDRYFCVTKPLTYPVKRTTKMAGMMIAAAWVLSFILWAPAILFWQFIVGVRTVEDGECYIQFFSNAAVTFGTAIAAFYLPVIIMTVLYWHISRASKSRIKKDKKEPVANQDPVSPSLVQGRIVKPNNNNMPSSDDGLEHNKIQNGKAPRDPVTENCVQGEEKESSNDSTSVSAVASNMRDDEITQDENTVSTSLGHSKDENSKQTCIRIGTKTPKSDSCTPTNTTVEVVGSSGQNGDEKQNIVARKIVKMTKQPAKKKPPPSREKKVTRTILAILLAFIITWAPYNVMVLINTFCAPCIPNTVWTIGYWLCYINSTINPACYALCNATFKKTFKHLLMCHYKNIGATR

[4] = system: monomers of the M2 receptor; settings: cited from earlier work
M2 receptor [5] = target: T2, M2 receptor (Sus scrofa, UniProt P06199); format: binding
T2 sequence (P06199 whole entry): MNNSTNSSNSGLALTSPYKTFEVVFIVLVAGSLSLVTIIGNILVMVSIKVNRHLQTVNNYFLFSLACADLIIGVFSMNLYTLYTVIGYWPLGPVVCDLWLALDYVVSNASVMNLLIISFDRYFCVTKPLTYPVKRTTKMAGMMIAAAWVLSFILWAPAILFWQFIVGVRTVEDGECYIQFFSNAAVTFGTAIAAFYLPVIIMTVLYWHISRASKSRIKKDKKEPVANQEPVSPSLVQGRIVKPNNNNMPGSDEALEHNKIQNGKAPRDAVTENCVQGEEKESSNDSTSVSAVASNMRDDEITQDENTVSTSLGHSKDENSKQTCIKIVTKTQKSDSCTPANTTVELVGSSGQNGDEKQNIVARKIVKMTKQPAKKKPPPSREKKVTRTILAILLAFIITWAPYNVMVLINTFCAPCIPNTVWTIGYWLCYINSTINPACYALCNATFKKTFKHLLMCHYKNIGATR

[6] = target: M2 receptor from porcine atria (Sus scrofa, UniProt P06199); test: biochemical; format: binding
Sequence of M2 receptor from porcine atria (P06199 whole entry): as above

human M2 receptor [7] = target: T1, human M2 receptor; format: binding; remark: listed apart in the source
[8] = target: M2 receptor in sarcolemmal membranes (Sus scrofa, UniProt P06199); test: biochemical; format: binding, porcine
Sequence of M2 receptor in sarcolemmal membranes (P06199 whole entry): as above

[9] = system: muscarinic acetylcholine M2 receptors; settings: cited from earlier work
M2 receptor [10] = target: T2, M2 receptor; settings: cited from earlier work

Sequence of M2 receptor extracted from porcine atria (P06199 whole entry): as above

## Clc1cccc(Cl)c1CO/N=C/c1cc[n+](CCC[n+]2ccc(/C=N/OCc3c(Cl)cccc3Cl)cc2)cc1 [Duo-3]
[1]
  Hill coefficient: greater than 1

## COc1ccc2c(c1)c1c3c(c4c5ccccc5n(C)c4c1n2CC(O)CN(C)C)C(=O)NC3=O (stereo not shown) [Go7874]
[1]
  Hill coefficient: greater than 1

## COC(=O)[C@@]1(OC)C[C@H]2O[C@]1(C)n1c3ccccc3c3c4c(c5c6ccccc6n2c5c31)C(=O)N(C)C4 [KT5823]
[1]
  Hill coefficient: greater than 1

## C[N+]1(C)[C@@H]2C[C@@H](OC(=O)[C@H](CO)c3ccccc3)C[C@H]1[C@@H]1O[C@@H]12 [N-[^3H]methylscopolamine, N-[^3H]Methylscopolamine]
[2]
  observed rate constant for dissociation kobsd, range of values: 0.179 to 0.247 min⁻¹
Human M2 receptor [3]
  observed rate constant for dissociation kobsd, range of values: 0.054 to 0.059 min⁻¹
  rate constant of net dissociation k (mean): 0.053 ± 0.002
[4]
  rate constant of dissociation: 0.036 ± 0.001

## CN1[C@@H]2CC[C@H]1C[C@@H](OC(=O)C(CO)c1ccccc1)C2 (stereo partly shown) [atropine, Atropine sulfate]
M2 receptor [5]
  Hill coefficient for inhibition of N-[3H]methylscopolamine: indistinguishable from 1

## CC[N+](CC)(CC)CCOc1cccc(OCC[N+](CC)(CC)CC)c1OCC[N+](CC)(CC)CC [gallamine, gallamine triethiodide]
[6]
  EC50: ~71 µM
Human M2 receptor [7]
  nH(1): 2.41
[8]
  cooperativity factor (1/α), Scheme 2: about 70
[8]; log K1
  EC50: 0.0537 µM and 0.282 µM
[4]
  log K: −4.12
[9]
  cooperativity factor: 46

## Nc1c2c(nc3ccccc13)CCCC2 [tacrine]
[1]
  Hill coefficient: greater than 1
M2 receptor [10]
  Hill coefficient: exceed 1
